In patent publication US5468734A, “Prophylactic and remedial preparation for diseases attendant on hyperglycemia, and wholesome food” (Godo Shusei Co., Ltd., priority 1992, dated 1995):

Columns and labels:
[1] = target: T1, sucrase (carbohydrase derived from rabbit small intestine mucous membrane) (Oryctolagus cuniculus, UniProt P07768); assay: Action to inhibit the hydrolytic activity of homogenate prepared from rabbit small intestine mucous membrane: sucrase inhibition; assay type: biochemical; conditions: for inhibition at 250 µg/mL / inhibition at 500 µg/mL / inhibition at 1000 µg/mL / inhibition at 2000 µg/mL: 0.25 h, substrate sucrose 20 mM, pH 6.8, 37° C., 15 minutes, read-out: Sucrase inhibition rate; for inhibition at 250 µg/mL: 25 mg/dl; for inhibition at 500 µg/mL: 50 mg/dl; for inhibition at 1000 µg/mL: 100 mg/dl; for inhibition at 2000 µg/mL: 200 mg/dl
T1 construct: suspended again in a 10 mM potassium phosphate buffer (pH: 7.0), thereby obtaining a crude enzyme suspension; from tissue; host or cells: rabbit small intestine (title: mucous membrane), homogenate, 60,000×g precipitate
Procedure: (§1) (Action to inhibit the hydrolytic activity of homogenate prepared from rabbit small intestine mucous membrane to carbohydrate)
(§2) A native kind of white rabbits (weight: 3.0-3.5 kg) were sacrificed by exsanguination to take out their small intestines.
(§3) After freezing and thawing the small intestines thus taken out, they were homogenized in a 5 mM EDTA buffer (pH: 7.0) and subjected to centrifugation for 60 minutes at 60,000×g. Precipitate thus formed was collected and suspended again in a 10 mM potassium phosphate buffer (pH: 7.0), thereby obtaining a crude enzyme suspension.
(§4) Sucrose (20 mM) and maltose (20 mM) were used as substrates.
(§5) Each reaction mixture was formulated so as to contain 350 microliters of a 100 mM maleate buffer (pH: 6.8), 100 microliters of a substrate solution, 50 microliters of the crude enzyme suspension and 50 microliters of a test solution. Substances to be tested were separately dissolved in a maleate buffer (pH: 6.8) before use.
(§6) Respective reactions were conducted for 15 minutes at 37° C.

[2] = test system: maltase (carbohydrase derived from rabbit small intestine mucous membrane); assay: Action to inhibit the hydrolytic activity of homogenate prepared from rabbit small intestine mucous membrane: maltase inhibition; assay type: biochemical; conditions: for Maltase inhibition rate: substrate maltose 20 mM, pH 6.8, 37° C., 15 minutes
Procedure: as §1, §2, §3, §4, §5, §6

rise in blood sugar = assay: Action to depress the rise in blood sugar after sucrose loading to mice; assay type: in vivo, ICR male mice; conditions: for Rise in blood sugar / action to depress the rise in blood sugar due to sucrose loading (in words): sucrose 1 g/kg; for Rise in blood sugar: dose 100 mg/kg oral, average ± standard error; for action to depress the rise in blood sugar due to sucrose loading (in words): orally 25, 50 and 100 mg/kg (L-arabinose, D-xylose) or 100 mg/kg (others); for action to depress the rise in blood sugar for sucrose or starch loading (in words): summary statement
Excerpt: (Action to depress the rise in blood sugar after carbohydrate loading)
ICR male mice (weight 30-35 g) were used in proportions of 5 mice per group.
After causing the mice to fast, sucrose or starch was orally administered in a proportion of 1 g/kg to the mice of each group, and at the same time substances to be tested were orally given to mice of their corresponding groups.
Blood was collected from the retroorbital sinus of each mouse before carbohydrate loading and upon elapsed times of 30 minutes, 60 minutes and 120 minutes after the loading to determine the concentration of glucose in the blood plasma by the glucose oxidase method.

T1 sequence (P07768 1008-1827 limits assumed): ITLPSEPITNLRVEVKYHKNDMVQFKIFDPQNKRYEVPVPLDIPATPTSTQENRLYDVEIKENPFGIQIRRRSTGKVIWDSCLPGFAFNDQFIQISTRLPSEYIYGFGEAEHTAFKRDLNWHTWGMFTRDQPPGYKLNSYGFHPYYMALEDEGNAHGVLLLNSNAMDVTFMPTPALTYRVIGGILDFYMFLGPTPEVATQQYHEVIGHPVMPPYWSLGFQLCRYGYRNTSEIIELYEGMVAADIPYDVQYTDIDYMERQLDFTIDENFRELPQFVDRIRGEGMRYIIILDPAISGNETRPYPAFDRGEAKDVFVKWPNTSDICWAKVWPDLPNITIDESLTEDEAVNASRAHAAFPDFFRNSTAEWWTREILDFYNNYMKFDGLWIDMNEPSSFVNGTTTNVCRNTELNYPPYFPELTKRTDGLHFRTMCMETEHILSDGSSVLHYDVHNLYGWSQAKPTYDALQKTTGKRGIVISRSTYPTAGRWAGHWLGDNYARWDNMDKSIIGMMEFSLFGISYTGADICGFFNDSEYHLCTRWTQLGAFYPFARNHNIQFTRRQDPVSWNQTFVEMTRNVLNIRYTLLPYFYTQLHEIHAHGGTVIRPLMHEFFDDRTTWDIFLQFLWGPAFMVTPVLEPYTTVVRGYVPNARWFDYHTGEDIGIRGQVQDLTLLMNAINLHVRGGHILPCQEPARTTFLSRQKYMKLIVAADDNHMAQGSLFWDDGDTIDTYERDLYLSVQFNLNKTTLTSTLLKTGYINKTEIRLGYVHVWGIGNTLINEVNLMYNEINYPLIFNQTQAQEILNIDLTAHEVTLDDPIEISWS
T1 sequence (P07768 2-1007 partner limits assumed): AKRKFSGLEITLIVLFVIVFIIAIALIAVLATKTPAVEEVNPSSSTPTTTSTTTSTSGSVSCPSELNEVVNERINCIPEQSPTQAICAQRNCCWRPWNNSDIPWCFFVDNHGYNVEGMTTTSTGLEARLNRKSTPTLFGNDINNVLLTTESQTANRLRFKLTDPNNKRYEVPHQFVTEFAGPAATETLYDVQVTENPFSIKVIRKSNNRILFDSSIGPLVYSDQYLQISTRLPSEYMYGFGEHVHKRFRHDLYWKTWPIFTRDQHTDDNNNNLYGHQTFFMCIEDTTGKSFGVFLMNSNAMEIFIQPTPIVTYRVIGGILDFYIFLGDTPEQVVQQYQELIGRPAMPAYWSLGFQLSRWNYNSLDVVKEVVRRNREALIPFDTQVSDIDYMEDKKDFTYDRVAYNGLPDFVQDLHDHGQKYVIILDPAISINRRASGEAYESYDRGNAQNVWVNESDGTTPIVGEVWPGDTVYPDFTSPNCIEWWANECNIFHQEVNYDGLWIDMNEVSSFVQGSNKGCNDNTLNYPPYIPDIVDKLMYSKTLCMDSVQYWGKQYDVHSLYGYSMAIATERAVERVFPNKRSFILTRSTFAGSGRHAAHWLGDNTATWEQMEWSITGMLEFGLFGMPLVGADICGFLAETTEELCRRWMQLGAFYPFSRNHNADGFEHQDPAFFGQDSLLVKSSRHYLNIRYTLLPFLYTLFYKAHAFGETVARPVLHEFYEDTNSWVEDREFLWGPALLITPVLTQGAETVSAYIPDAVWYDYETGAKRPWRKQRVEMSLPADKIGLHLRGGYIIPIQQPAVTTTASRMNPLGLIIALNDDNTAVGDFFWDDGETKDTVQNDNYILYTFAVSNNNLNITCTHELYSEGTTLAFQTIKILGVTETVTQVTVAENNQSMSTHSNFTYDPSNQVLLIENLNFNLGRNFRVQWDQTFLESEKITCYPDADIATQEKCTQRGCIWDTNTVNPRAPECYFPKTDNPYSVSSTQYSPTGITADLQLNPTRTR

SMILES | sucrase-inhibiting action (in words) [1] | inhibition at 250 µg/mL [1] [%] | inhibition at 500 µg/mL [1] [%] | inhibition at 1000 µg/mL [1] [%] | inhibition at 2000 µg/mL [1] [%] | maltase-inhibiting action (in words) [2] | Maltase inhibition rate ([2]; 25 mg/dl) [%] | Maltase inhibition rate ([2]; 50 mg/dl) [%] | Maltase inhibition rate ([2]; 100 mg/dl) [%] | Maltase inhibition rate ([2]; 200 mg/dl) [%] | Rise in blood sugar (rise in blood sugar; after 30 min.) | Rise in blood sugar (rise in blood sugar; after 60 min.) | Rise in blood sugar (rise in blood sugar; after 120 min.) | action to depress the rise in blood sugar due to sucrose loading (in words) (rise in blood sugar) | action to depress the rise in blood sugar for sucrose or starch loading (in words) (rise in blood sugar)
O=CC[C@@H](O)[C@@H](O)[C@H](O)CO [2-Deoxy-D-galactose, 2-deoxy-D-galactose] | strong sucrase-inhibiting action | 13.7 | 15.5 | 21.6 | 34.8 | strong sucrase-inhibiting action and maltase-inhibiting action | 11.2 | 13.4 | 19.3 | 32.8 | 61.1 Δmg/dl | 50.8 Δmg/dl | 26.2 Δmg/dl | significantly depressed | effective action to depress the rise in blood sugar
O=C[C@@H](O)[C@@H](O)[C@H](O)CO [D-Lyxose, D-lyxose] | inhibiting actions second to these |  |  |  | 23.4 | inhibiting actions second to these |  |  |  | 22.3 | 62.7 Δmg/dl | 57.0 Δmg/dl |  | significantly depressed | effective action to depress the rise in blood sugar
O=C[C@H](O)[C@H](O)[C@H](O)CO [D-Ribose, D-ribose] | strong sucrase-inhibiting action | 13.7 | 17.8 | 34 | 33.4 | strong sucrase-inhibiting action and maltase-inhibiting action | 13.5 | 18.4 | 33.3 | 46.5 | 61.2 Δmg/dl | 48.5 Δmg/dl |  | significantly depressed | effective action to depress the rise in blood sugar
O=C(CO)[C@H](O)[C@H](O)CO [D-Ribulose, D-ribulose] | inhibiting actions second to these |  |  |  | 21.7 | inhibiting actions second to these |  |  |  | 20.1 | 65.6 Δmg/dl | 56.3 Δmg/dl | 28.1 Δmg/dl | significantly depressed | effective action to depress the rise in blood sugar
OC[C@H]1O[C@@H](O[C@H]2[C@H](O)[C@H](O)[C@H](O[C@H]3[C@H](O)[C@H](O)[C@H](O[C@H]4[C@H](O)[C@H](O)[C@H](O[C@H]5[C@H](O)[C@H](O)C(O)O[C@@H]5CO)O[C@@H]4CO)O[C@@H]3CO)O[C@@H]2CO)[C@@H](O)[C@@H](O)[C@@H]1O (stereo partly drawn) [reference compound] |  |  |  |  | 4 |  |  |  |  | 3.5 |  |  |  |  | 
